Source: patent publication US20150219624A1, “METHODS FOR IDENTIFYING ANTI-CANCER COMPOUNDS” (MEMORIAL SLOAN KETTERING CANCER CENTER, priority 2013, published 2015)
Where “and” joins values, the source holds several entries; their conditions need not be identical. Identical values can stand only once.

Assay: In vivo toxicity studies (body and organ weights, hematology, clinical chemistry, histopathology)
Conditions: for CHOL, % ChVh / Ca, % ChVh / Cl, % ChVh / GLUC, % ChVh / K, % ChVh / Na, % ChVh / Na/K, % ChVh / P, % ChVh / CHOL, Mean / Ca, Mean / Cl, Mean / GLUC, Mean / K, Mean / Na, Mean / P, Mean: 0.2 mg/kg Female
Procedure: Toxicity studies. Eight week-old C57Bl/6NTac female mice were randomly assigned to either control or treatment groups. Each treatment group received one daily dose of test article through i.p. injection over 5 consecutive days. Toxicity was monitored by weight loss and daily clinical observation for the 14 days following test article administration. 24 hours after the last test article administration 4 mice in each group were sacrificed and clinical chemistry, hematology and tissue specific histopathology were done at autopsy. The remaining mice (n=2 per group) were kept under observation for an additional 13 days; at that point all mice were sacrificed and clinical chemistry, hematology and tissue specific histopathology were done at time of autopsy.
D) KOPT-K1 xenograft studies.

[1] = 0.2 mg/kg, female, Day 5, % change of mean vs vehicle
[2] = 0.2 mg/kg, female, Day 5, fold change of mean vs vehicle
[3] = 0.2 mg/kg, female, Day 5, group mean
[4] = 0.2 mg/kg, female, Day 5, individual animals

Substance: (±)-CR-31-B
- CHOL, % ChVh (Day 5, change vs vehicle): 0.0%
- Ca, % ChVh (Day 5, change vs vehicle): 2.2%
- Cl, % ChVh (Day 5, change vs vehicle): 0.6%
- GLUC, % ChVh (Day 5, change vs vehicle): 1.8%
- K, % ChVh (Day 5, change vs vehicle): −4.5%
- Na, % ChVh (Day 5, change vs vehicle): −0.2%
- Na/K, % ChVh (Day 5, change vs vehicle): 1.4%
- P, % ChVh (Day 5, change vs vehicle): −14.6%
- CHOL, Mean (Day 5, group mean, N 4): 66.0 mg/dL
- Ca, Mean (Day 5, group mean, N 4): 9.1 mg/dL
- Cl, Mean (Day 5, group mean, N 4): 114.0 mEq/L
- GLUC, Mean (Day 5, group mean, N 4): 297.3 mg/dL
- K, Mean (Day 5, group mean, N 4): 4.2 mEq/L
- Na, Mean (Day 5, group mean, N 4): 149.0 mEq/L
- P, Mean (Day 5, group mean, N 4): 7.0 mg/dL
- CHOL, % ChVh (Day 19, change vs vehicle): −2.3%
- Ca, % ChVh (Day 19, change vs vehicle): −3.2%
- Cl, % ChVh (Day 19, change vs vehicle): −1.3%
- GLUC, % ChVh (Day 19, change vs vehicle): −7.9%
- K, % ChVh (Day 19, change vs vehicle): −9.5%
- Na, % ChVh (Day 19, change vs vehicle): 0.0%
- Na/K, % ChVh (Day 19, change vs vehicle): 12.9%
- P, % ChVh (Day 19, change vs vehicle): 50.0%
- CHOL, Mean (Day 19, group mean, N 2): 65.0 mg/dL
- Ca, Mean (Day 19, group mean, N 2): 9.2 mg/dL
- Cl, Mean (Day 19, group mean, N 2): 114.5 mEq/L
- GLUC, Mean (Day 19, group mean, N 2): 240.5 mg/dL
- K, Mean (Day 19, group mean, N 2): 3.8 mEq/L
- Na, Mean (Day 19, group mean, N 2): 148.0 mEq/L
- P, Mean (Day 19, group mean, N 2): 10.2 mg/dL
- ALB % ChVh [1]: 3.3%
- BASO % % ChVh [1]: −72.7%
- BASO (K/uL) % ChVh [1]: −100.0%
- BUN % ChVh [1]: 3.0%
- Body Weight % ChVh [1]: −3.8%
- CRTN % ChVh [1]: 11.1%
- EOS % % ChVh [1]: −70.0%
- EOS (K/uL) % ChVh [1]: 0.0%
- GLOB % ChVh [1]: 5.9%
- HCT % % ChVh [1]: 3.4%
- HGB % ChVh [1]: 4.4%
- LYM % % ChVh [1]: −14.6%
- LYM (K/uL) % ChVh [1]: −21.2%
- Left Kidney (% body wt) % ChVh [1]: −10.5%
- Left Kidney (gm) % ChVh [1]: −12.5%
- Liver (% body wt) % ChVh [1]: 2.1%
- Liver (gm) % ChVh [1]: −1.6%
- MCH % ChVh [1]: 2.5%
- MCHC % ChVh [1]: 0.9%
- MCV % ChVh [1]: 1.4%
- MONO % % ChVh [1]: 21.2%
- MONO (K/uL) % ChVh [1]: 8.3%
- MPV % ChVh [1]: −5.6%
- NEUT % % ChVh [1]: 97.8%
- NEUT (K/uL) % ChVh [1]: 87.2%
- PLT % ChVh [1]: −29.0%
- RBC % ChVh [1]: 1.9%
- RDW % % ChVh [1]: −0.6%
- Right Kidney (% body wt) % ChVh [1]: −11.6%
- Right Kidney (gm) % ChVh [1]: −15.4%
- Spleen (% body wt) % ChVh [1]: 17.6%
- Spleen (gm) % ChVh [1]: 13.6%
- TBIL % ChVh [1]: 0.0%
- TP % ChVh [1]: 4.3%
- WBC % ChVh [1]: −7.7%
- ALP FoldChVh [2]: 1.0
- ALT FoldChVh [2]: 1.3
- AST FoldChVh [2]: 1.2
- ALB [3]: 3.1 g/dL
- ALP [3]: 124.3 U/L
- ALT [3]: 25.0 U/L
- AST [3]: 41.3 U/L
- BASO [3]: 0.00 K/uL
- BASO % [3]: 0.03%
- BUN [3]: 27.3 mg/d L
- Body Weight [3]: 16.680 gm
- CRTN [3]: 0.20 mg/dL
- EOS [3]: 0.01 K/uL
- EOS % [3]: 0.06%
- GGT [3]: 0.0 U/L
- GLOB [3]: 1.8 g/dL
- HCT % [3]: 45.6%
- HGB [3]: 13.7 g/dL
- LYM [3]: 4.31 K/uL
- LYM % [3]: 72.97%
- MCH [3]: 15.3 pg
- MCHC [3]: 30.0 g/dL
- MCV [3]: 50.9 fL
- MONO [3]: 0.13 K/uL
- MONO % [3]: 2.17%
- MPV [3]: 4.3 fL
- NEUT [3]: 1.46 K/uL
- NEUT % [3]: 24.77%
- PLT [3]: 725.8 K/uL
- RBC [3]: 8.96 M/uL
- RDW % [3]: 15.8%
- TBIL [3]: 0.18 mg/d L
- TP [3]: 4.9 g/dL
- WBC [3]: 5.91 K/uL
- ALB [4]: 3.3 g/dL and 3.0 g/dL and 2.9 g/dL and 3.1 g/dL
- ALP [4]: 116 U/L and 114 U/L and 123 U/L and 144 U/L
- ALT [4]: 26 U/L and 20 U/L (2×) and 34 U/L
- AST [4]: 51 U/L and 35 U/L (2×) and 44 U/L
- BASO [4]: 0.00 K/uL
- BASO % [4]: 0.07% and 0.04% and 0.00% (2×)
- BUN [4]: 27 mg/d L (2×) and 26 mg/d L and 29 mg/d L
- Body Weight [4]: 15.962 gm and 17.217 gm and 17.463 gm and 16.078 gm
- CHOL [4]: 68 mg/dL and 66 mg/dL (2×) and 64 mg/dL
- CRTN [4]: 0.2 mg/dL
- Ca [4]: 8.9 mg/dL and 9.0 mg/dL and 9.3 mg/dL (2×)
- Cl [4]: 116 mEq/L and 113 mEq/L (2×) and 114 mEq/L
- EOS [4]: 0.00 K/uL (2×) and 0.01 K/uL (2×)
- EOS % [4]: 0.01% and 0.14% and 0.00% and 0.10%
- GGT [4]: 0 U/L
- GLOB [4]: 1.8 g/dL (3×) and 1.9 g/dL
- GLUC [4]: 270 mg/dL and 335 mg/dL and 261 mg/dL and 323 mg/dL
- HCT % [4]: 48.3% and 45.1% and 43.9% and 45.0%
- HGB [4]: 14.3 g/dL and 13.8 g/dL and 13.0 g/dL and 13.5 g/dL
- K [4]: 4.6 mEq/L and 4.0 mEq/L and 4.4 mEq/L and 3.9 mEq/L
- LYM [4]: 3.64 K/uL and 4.96 K/uL and 3.49 K/uL and 5.13 K/uL
- LYM % [4]: 76.21% and 71.86% and 70.06% and 73.76%
- Left Kidney [4]: 0.108 gm and 0.133 gm and 0.138 gm and 0.125 gm and 0.75 % body wt and 0.77 % body wt and 0.79 % body wt and 0.78 % body wt
- Liver [4]: 0.807 gm and 0.969 gm and 0.914 gm and 0.843 gm and 5.06 % body wt and 5.63 % body wt and 5.23 % body wt and 5.24 % body wt
- MCH [4]: 15.4 Pg (2×) and 15.0 Pg and 15.2 Pg
- MCHC [4]: 29.6 g/dL (2×) and 30.6 g/dL and 30.0 g/dL
- MCV [4]: 51.9 fL and 50.4 fL and 50.5 fL and 50.6 fL
- MONO [4]: 0.08 K/uL and 0.24 K/uL and 0.09 K/uL and 0.12 K/uL
- MONO % [4]: 1.77% and 3.45% and 1.74% and 1.70%
- MPV [4]: 4.3 fL (3×) and 4.1 fL
